Experimental data taken from US20210206760A1, “PHENYL-SUBSTITUTED DIHYDRONAPHTHYRIDINE COMPOUND AND USE THEREOF” (SUNSHINE LAKE PHARMA CO., LTD., priority 2018, published 2021).
pIC50: −log10 of the molar value.

molecular target: T1, mineralocorticoid receptor (MR) (Homo sapiens, UniProt P08235); experiment: Activity test in vitro: Gal4 DBD-MR LBD dual luciferase reporter assay in HEK293 cells; type: cell-based; settings: HEK293 cells transfected with Gal4 DBD-MR LBD and firefly luciferase reporter; agonist aldosterone at EC80; 18 hours incubation; Renilla-corrected
T1 construct: expressed in transfected cells; host or cells: HEK293 (human embryonic kidney cells)
T1 sequence (P08235 726-964 limits assumed): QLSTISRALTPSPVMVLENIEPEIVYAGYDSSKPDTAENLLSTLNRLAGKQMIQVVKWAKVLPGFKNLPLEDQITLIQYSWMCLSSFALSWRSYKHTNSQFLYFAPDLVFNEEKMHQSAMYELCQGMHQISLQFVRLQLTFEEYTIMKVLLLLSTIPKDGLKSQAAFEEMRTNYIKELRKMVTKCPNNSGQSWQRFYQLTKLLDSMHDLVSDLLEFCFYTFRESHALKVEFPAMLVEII
Excerpt: Example a Activity Test In Vitro
Utilizing the characteristics of luciferase binding to the substrate to produce a chemiluminescence reaction, the fused plasmid of the Gal4 DNA binding domain (DBD) containing the ligand binding domain (LBD) of mineralocorticoid receptor (MR) and the firefly luciferase reporter gene plasmid controlled by Gal4 UAS (upstream activation sequences) were transfected into human embryonic kidney cells (HEK293). The changes in mineralocorticoid receptor activity between before and after stimulation or the influence of different stimuli on mineralocorticoid receptor activity was judged by the level of firefly luciferase activity. At the same time, in order to reduce the impact of internal change factors on the accuracy of the experiment, the plasmid with Renilla luciferase gene was used as a control plasmid to transfect cells to provide an internal control for transcription activity, so that the test results were not interfered by changes in experimental conditions.
1) HEK293 cells were collected after trypsinization and the cell density was adjusted to 500,000 cells/mL;
2) FuGENE HD transfection reagent was added into the cell suspension;
3) The above cell suspension was seeded into a 96-well cell culture plate at a density of 100 μL/well, and incubated for 24 hours at 37° C. in 5% CO2;
4) A series of concentrations of the test compound solution and the EC80 concentration of agonist aldosterone were added into each well and incubated for 18 hours;
5) Firefly and Renilla luciferase signals were detected through Promega dual luciferase reporter assay system.
1) After obtaining the firefly luciferase signal (F) and the Renilla luciferase signal (R), using the Renilla luciferase signal for correction, i.e., the F/R value was used to calculate the subsequent inhibition rate;
2)% inhibition rate=(Max−X)/(Max−Min)×100%, where Max is the F/R value of the positive control well, Min is the F/R value of the negative control well, and X is the F/R value of test compound well of different concentrations;
3) IC50 calculation was performed by GraphPrism 5.0 mapping software.

Row | SMILES | pIC50
1 | COc1cc(C#N)ccc1C1C(C(N)=O)=C(C)Nc2c(C)cnc(OCC3CC3)c21 (centres unmarked) [Example 1, 4-(4-Cyano-2-methoxyphenyl)-5-(cyclopropylmethoxy)-2,8-dimethyl-1,4-dihydro-1,6-naphthyridine-3-carboxamide] | 7.71
2 | COc1cc(C#N)ccc1C1C(C(N)=O)=C(C)Nc2c(C)cnc(OCC3CCCC3)c21 (centres unmarked) [Example 3, 4-(4-Cyano-2-methoxyphenyl)-5-(cyclopentylmethoxy)-2,8-dimethyl-1,4-dihydro-1,6-naphthyridine-3-carboxamide] | 7.54
3 | COc1cc(C#N)ccc1C1C(C(N)=O)=C(C)Nc2c(C)cnc(OCC3CCC3)c21 (centres unmarked) [Example 5, 4-(4-cyano-2-methoxyphenyl)-5-(cyclobutylmethoxy)-2,8-dimethyl-1,4-dihydro-1,6-naphthyridine-3-carboxamide] | 7.75
4 | COc1cc(C#N)ccc1C1C(C(N)=O)=C(C)Nc2c(C)cnc(OC3CCC3)c21 (centres unmarked) [Example 7, 4-(4-Cyano-2-methoxyphenyl)-5-(cyclobutyloxy)-2,8-dimethyl-1,4-dihydro-1,6-naphthyridine-3-carboxamide] | 8.46
5 | COc1cc(C#N)ccc1C1C(C(N)=O)=C(C)Nc2c(C)cnc(OC3CCCC3)c21 (centres unmarked) [Example 8, 4-(4-Cyano-2-methoxyphenyl)-5-(cyclopentyloxy)-2,8-dimethyl-1,4-dihydro-1,6-naphthyridine-3-carboxamide] | 8.11
